Measurements reported in ChEMBL document CHEMBL1159334, “Agastinol and agastenol, novel lignans from Agastache rugosa and their evaluation in an apoptosis inhibition assay” (J Nat Prod, 2002).
Converted amounts (≈) assume the structure as drawn.

Test system: U-937
Experiment: Inhibition of etoposide-induced caspase 3 induction in human U937 cells after 7 hrs
Assay type: functional, cell-based
Conditions: U-937, 7 h

IC50 [µg/mL]	SMILES
15.2 (≈ 31.6 µM)	COc1cc(C[C@@H]2CO[C@@H](c3ccc(O)c(OC)c3)[C@@H]2COC(=O)c2ccc(O)cc2)ccc1O [AGASTINOL]
11.4 (≈ 23.8 µM)	COc1cc(/C=C2/CO[C@@H](c3ccc(O)c(OC)c3)[C@@H]2COC(=O)c2ccc(O)cc2)ccc1O [AGASTENOL]
